target: T1, human PAD4 (Homo sapiens, UniProt Q9UM07); assay: In vitro PAD4 BAEE biochemical assay; settings: BAEE substrate 3 mM, 5 nM PAD4, 2 mM calcium chloride; geometric mean of multiple experiments
T1 construct: human PAD4 (NM_012387), A2-P663, was PCR amplified; His-SUMO (N, cleaved yes); made in house; host or cells: E. coli BL21(DE3)
In short: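 Assay was run at 25 °C using 3 mM BAEE and 5 nM human PAD4 after a 30 min compound preincubation; ammonia produced over 2 h was quantified by OPA-derived fluorescence. Full inhibition was defined by 50 µM BB-Cl-Amidine, and IC50 came from variable-slope nonlinear regression.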

T1 sequence (Q9UM07 2-663): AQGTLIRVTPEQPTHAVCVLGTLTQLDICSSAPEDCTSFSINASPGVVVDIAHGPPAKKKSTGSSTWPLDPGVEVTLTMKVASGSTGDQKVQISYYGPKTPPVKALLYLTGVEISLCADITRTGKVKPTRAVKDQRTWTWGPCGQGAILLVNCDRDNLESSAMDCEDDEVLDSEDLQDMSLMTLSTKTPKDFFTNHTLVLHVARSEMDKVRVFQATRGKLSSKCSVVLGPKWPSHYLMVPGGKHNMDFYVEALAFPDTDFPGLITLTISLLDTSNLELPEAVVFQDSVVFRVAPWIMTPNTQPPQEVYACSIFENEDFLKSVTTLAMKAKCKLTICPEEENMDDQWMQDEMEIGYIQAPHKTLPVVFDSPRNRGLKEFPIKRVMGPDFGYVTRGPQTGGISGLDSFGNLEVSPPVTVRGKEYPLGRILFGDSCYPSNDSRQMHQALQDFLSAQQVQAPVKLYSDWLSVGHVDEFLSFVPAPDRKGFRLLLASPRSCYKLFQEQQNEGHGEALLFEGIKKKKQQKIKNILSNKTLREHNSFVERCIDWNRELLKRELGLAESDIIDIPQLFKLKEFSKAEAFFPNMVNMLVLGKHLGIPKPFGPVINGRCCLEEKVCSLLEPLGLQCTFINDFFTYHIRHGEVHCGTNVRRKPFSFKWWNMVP

Compound	IC50
COc1cc(C(=O)N2CCC[C@@H](N)C2)cc2nc(-c3cc4ccc5cc4n3CCCCC[C@@H]3C[C@H]3C(=O)N[C@@H]5C)n(C)c12 [Example 165, (2~{R},5~{R},7~{R})-14-[5-[(3~{R})-3-aminopiperidine-1-carbonyl]-7-methoxy-1-methyl-benzimidazol-2-yl]-2-methyl-3,13-diazatetracyclo[11.5.2.0^{5,7}.0^{16,20}] icosa-1(19),14,16(20),17-tetraen-4-one]	235 nM
COc1cc(C(=O)N2CC[C@@H](OC(F)F)[C@@H](N)C2)cc2nc(-c3cc4ccc5nc4n3CCCCC[C@@H]3C[C@H]3C(=O)N[C@@H]5C)n(C)c12 [Example 6, (2~{R),5~{R},7~{R})-14-[5-[(3~{S},4~{R})-3-amino-4-(difluoromethoxy)piperidine-1-carbonyl]-7-methoxy-1-methyl-benzimidazol-2-yl]-2-methyl-3,13,19-triazatetracyclo[11.5.2.0^{5,7}.0^{16,20}] icosa-1(19),14,16(20),17-tetraen-4-one]	105 nM
COc1cc(C(=O)N2CCC[C@@H](N)C2)cc2nc(-c3cc4ccc5nc4n3CCCCCCNC(=O)c3ccccc3-5)n(C)c12 [Example 49, 17-[5-[(3~{R})-3-aminopiperidine-1-carbonyl]-7-methoxy-1-methyl-benzimidazol-2-yl]-9,16,22-triazatetracyclo[14.5.2.0^{2,7}.0^{19,23}] tricosa-1(22),2,4,6,17,19(23),20-heptaen-8-one]	112 nM
COc1cc(C(=O)N2[C@H]3CC[C@@H]2[C@H](N)C3)cc2nc(-c3cc4ccc5nc4n3C[C@H]3[C@@H](COCCC(=O)N[C@@H]5C)C3(C)C)n(C)c12 (single isomer, unassigned) [Example 11, (3˜{S},5˜{R},12˜{R})-18-[5-[(1˜{R},2˜{R},4˜{S})-2-amino-7-azabicyclo[2.2.1]heptane-7-carbonyl]-7-methoxy-1-methyl-benzimidazol-2-yl]-4,4,12-trimethyl-7-oxa-1,11,20-triazatetracyclo[11.5.2.0^{3,5}.0^{16,19}]icosa-13(20),14,16(19),7-tetraen-10-one]	251 nM
COc1cc(C(=O)N[C@H]2CNCC[C@@H]2F)cc2nc(-c3cc4ccc5nc4n3CCCCCc3cnn(C)c3C(=O)N[C@@H]5C)n(C)c12 [Example 181, 2-[(2~{R})-2,6-dimethyl-4-oxo-3,6,7,15,21-pentazatetracyclo[13.5.2.0^{5,9}.0^{18,22}]docosa-1(21),5(9),7,16,18(22),19-hexaen-16-yl]-~{N}-[(3~{S},4~{S})-4-fluoro-3-piperidyl]-7-methoxy-1-methyl-benzimidazole-5-carboxamide]	171 nM

Other lines, results leading:

IC50	Compound
23 nM	COc1cc(C(=O)N2[C@H]3CC[C@@H]2[C@H](N)[C@H](OC)C3)cc2nc(-c3cc4ccc5nc4n3CC(F)(F)CCC[C@@H]3C[C@H]3C(=O)N[C@@H]5C)n(C)c12 [Example 726, (2~{R},5~{R},7~{R})-14-[5-[(1~{R},2~{S},3~{R}, 5~{S})-2-amino-3-methoxy-8-azabicyclo[3.2.1]octane-8-carbonyl]-7-methoxy-1-methyl-benzimidazol-2-yl]-11,11-difluoro-2-methyl-3,13,19-triazatetracyclo[11.5.2.0^ {5,7}.0^{16,20}] icosa-1(19),14,16(20), 17-tetraen-4-one]
271 nM	COc1cc(C(=O)N2CC[C@@H](OC(F)(F)F)[C@@H](N)C2)cc2nc(-c3cc4ccc5nc4n3CCCCC[C@@H]3C[C@H]3C(=O)N[C@@H]5C)n(C)c12 [Example 582, (2~{R},5~{R},7~{R})-14-[5-[(3~{S},4~{R})-3-amino-4-(trifluoromethoxy)piperidine-1-carbonyl]-7-methoxy-1-methyl-benzimidazol-2-yl]-2-methyl-3,13,19-triazatetracyclo[11.5.2.0^ {5,7}.0^{16,20}]icosa-1(19), 14,16(20),17-tetraen-4-one]
384 nM	COc1cc(C(=O)N2C[C@@H]3C[C@@H]3[C@@H](N)C2)cc2nc(-c3cc4ccc5nc4n3CCCCCCC(C)(C)C(=O)N[C@@H]5C)n(C)c12 [Example 535, (11~{R})-17-[5-[(1~ {R},5~{R},6~{S})-5-amino-3-azabicyclo[4.1.0]heptane-3-carbonyl]-7-methoxy-1-methyl-benzimidazol-2-yl]-8,8,11-trimethyl-1,10,19-triazatricyclo[10.5.2.0^ {15,18}]nonadeca-12(19),13,15(18),16-tetraen-9-one]
682 nM	COc1cc(C(=O)N2CC[C@@H](OC)[C@@H](N)C2)cc2nc(-c3cc4ccc5nc4n3CCC/C=C/[C@@H]3C[C@@]3(C(F)(F)F)C(=O)N[C@@H]5C)n(C)c12 [Example 635, (2~{R},5~{S},7~{S},8~{E})-14-[5-[(3~{S},4~{R})-3-amino-4-methoxy-piperidine-1-carbonyl]-7-methoxy-1-methyl-benzimidazol-2-yl]-2-methyl-5-(trifluoromethyl)-3,13,19-triazatetracyclo[11.5.2.0^ {5,7}.0^{16,20}] icosa-1(19),8,14,16(20), 17-pentaen-4-one]
14 nM	COc1cc(C(=O)N2[C@H]3CC[C@@H]2[C@H](N)C3)cc2nc(-c3cc4ccc5nc4n3CCCCCCCC(=O)N[C@@H]5C)c(C)n12 [Example 316, (11˜{R})-17-[7-[(1˜{R},2˜{R},4˜{S})-2-amino-7-azabicyclo[2.2.1]heptane-7-carbonyl]-5-methoxy-3-methyl-imidazo[1,2-a]pyridin-2-yl]-11-methyl-1,10,19-triazatricyclo[10.5.2.0^{15,18}]nonadeca-12(19),13,15(18),16-tetraen-9-one]
74 nM	COc1cc(C(=O)N2CC[C@@H](OC)[C@@H](N)C2)cc2nc(-c3cc4ccc5nc4n3CC(F)(F)CCC[C@@H]3C[C@@]3(C)C(=O)N[C@@H]5C)n(C)c12 [Example 585, (2~{R},5~{R},7~{R})-14-[5-[(3~{S},4~{R})-3-amino-4-methoxy-piperidine-1-carbonyl]-7-methoxy-1-methyl-benzimidazol-2-yl]-11,11-difluoro-2,5-dimethyl-3,13,19-triazatetracyclo[11.5.2.0^ {5,7}.0^{16,20}]icosa-1(19),14,16(20),17-tetraen-4-one]
57 nM	C[C@H]1NC(=O)c2ccc(Cl)nc2CCCCCn2c(-c3nc4cc(C(=O)N5C[C@H](N)[C@@H]6CC[C@H]5C6)c(F)c(F)c4n3C3CC3)cc3ccc1nc32 [Example 456, (2~{R})-17-[5-[(1~{S},4~{R},5~{R})-4-amino-2-azabicyclo[3.2.1]octane-2-carbonyl]-1-cyclopropyl-6,7-difluoro-benzimidazol-2-yl]-8-chloro-2-methyl-3,9,16,22-tetrazatetracyclo[14.5.2.0^{5,10}.0^{19,23}] tricosa-1(22),5(10),6,8,17,19(23),20-heptaen-4-one]
20 nM	COc1cc(C(=O)N2C[C@H](N)[C@@H]3CC[C@H]2C3)cc2nc(-c3cc4ccc5nc4n3CCCCC[C@@H]3C[C@H]3C(=O)N[C@@H]5C)n(C)c12 [Example 444, (2~{R},5~{R},7~{R})-14-[5-[(1~{S},4~{R},5~{R})-4-amino-2-azabicyclo[3.2.1]octane-2-carbonyl]-7-methoxy-1-methyl-benzimidazol-2-yl]-2-methyl-3,13,19-triazatetracyclo[11.5.2.0^{5,7}.0^{16,20}] icosa-1(19),14,16(20),17-tetraen-4-one]
